2 molecules from publication PMC6718313 (European journal of medicinal chemistry, 2019) can be followed below.

The EC50 is the midpoint of the concentration-response curve. Read a high EC50 as a need for much substance.

In this test the target is T1, ABCG2 (Homo sapiens, UniProt Q9UNQ0).
T1 sequence (Q9UNQ0 1-655): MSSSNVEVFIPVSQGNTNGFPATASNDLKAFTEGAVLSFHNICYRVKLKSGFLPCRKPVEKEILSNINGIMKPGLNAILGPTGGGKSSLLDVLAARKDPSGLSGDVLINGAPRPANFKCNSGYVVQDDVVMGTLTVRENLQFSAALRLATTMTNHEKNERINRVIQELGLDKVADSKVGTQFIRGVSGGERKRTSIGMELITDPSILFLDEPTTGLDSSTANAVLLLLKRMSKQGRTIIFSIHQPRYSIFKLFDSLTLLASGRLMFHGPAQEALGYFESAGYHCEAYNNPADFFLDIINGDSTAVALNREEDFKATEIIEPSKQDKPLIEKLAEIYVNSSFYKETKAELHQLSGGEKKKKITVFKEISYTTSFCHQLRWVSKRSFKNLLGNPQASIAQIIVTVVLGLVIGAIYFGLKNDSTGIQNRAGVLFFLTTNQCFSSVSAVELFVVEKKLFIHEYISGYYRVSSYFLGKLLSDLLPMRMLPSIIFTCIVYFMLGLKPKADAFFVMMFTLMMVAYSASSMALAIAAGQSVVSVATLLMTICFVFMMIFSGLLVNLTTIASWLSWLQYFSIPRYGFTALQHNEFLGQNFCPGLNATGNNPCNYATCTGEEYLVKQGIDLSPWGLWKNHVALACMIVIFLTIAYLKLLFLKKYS
As to the kind of experiment: Vi-sensitive ABCG2 ATPase stimulation in High Five insect cell membranes. Type of test: biochemical.

`COc1ccc(C(=O)c2ccc3[nH]cc(C(=O)c4ccc(OC)cc4)c3c2OC)cc1` [compound 2, (4-methoxy-1H-indole-3,5-diyl)bis((4-methoxyphenyl)methanone)] came in with an EC50 of 210 nM.
As to `COc1ccc(C(=O)c2c[nH]c3ccc(OC)cc23)cc1` [compound 8, (5-Methoxy-1H-indol-3-yl)(4-methoxyphenyl)methanone], the response was half-maximal at 750 nM (EC50).
